Our source for the IC50 values is US10577363B2, “Substituted piperidine compounds” (EPIZYME, INC., priority 2014, dated 2020).

Each structure is given as a SMILES string. Where only a bound is given, the exact number is not on record here.

The experiment concerns the target SMYD3 (Homo sapiens (Human), UniProt Q9H7B4). Nature of the experiment: SMYD3 biochemical assay (SPA, 3H-SAM methylation of MEKK2 protein substrate). The settings on record: read-out: SMYD3 Biochem IC50 (μM)*. An outline of the steps:
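Enzyme: untagged full-length human SMYD3 from E. coli; substrate GST-tagged MEKK2 from insect cells. Buffer 25 mM Tris-Cl pH 8.0, 1 mM TCEP, 0.005% BSG/Tween 20. 30 min compound–enzyme preincubation at RT; 3H-SAM/MEKK2 start; stop with cold SAM (100 uM final); SPA readout in cpm.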
`C[C@@H]1CC(NC(=O)c2cc(C3CC3)on2)CCN1C(=O)CC1(O)CCNCC1` (stereo partly drawn) [compound 167, 5-cyclopropyl-N-((2R)-1-(2-(4-hydroxypiperidin-4-yl)acetyl)-2-methylpiperidin-4-yl)isoxazole-3-carboxamide]: the half-inhibitory concentration (IC50) worked out at 0.911 µM.

Consider `CCC1(C(=O)N2CCC(NC(=O)c3cc(C4CC4)on3)C[C@H]2C)CCNCC1` (stereo partly drawn) [compound 168, 5-cyclopropyl-N-((2R)-1-(4-ethylpiperidine-4-carbonyl)-2-methylpiperidin-4-yl)isoxazole-3-carboxamide], for which the IC50 was 3.18 µM.

Consider `CCC1(C(=O)N2CCC(NC(=O)c3cc(C4CC4)on3)C[C@@H]2C)CCNCC1` (stereo partly drawn) [compound 169, 5-cyclopropyl-N-((2S)-1-(4-ethylpiperidine-4-carbonyl)-2-methylpiperidin-4-yl)isoxazole-3-carboxamide], for which the IC50 is 3.77 µM.

For the molecule `C[C@@H]1CC(NC(=O)c2cc(C3CC3)on2)CCN1C(=O)C1(F)CCNCC1` (stereo partly drawn) [compound 170, 5-cyclopropyl-N-((2R)-1-(4-fluoropiperidine-4-carbonyl)-2-methylpiperidin-4-yl)isoxazole-3-carboxamide], the concentration for half-maximal inhibition (IC50) is 0.677 µM.

Regarding `C[C@@H]1C[C@H](NC(=O)c2cc(C3CC3)on2)CCN1C(=O)CCCN` [compound 171, N-((2R,4R)-1-(4-aminobutanoyl)-2-methylpiperidin-4-yl)-5-cyclopropylisoxazole-3-carboxamide], the IC50 amounted to 3.11 µM.

Regarding `C[C@@H]1C[C@H](NC(=O)c2cc(C3CC3)on2)CCN1C(=O)CC(O)CN` (stereo partly drawn) [compound 172, N-((2R,4R)-1-(4-amino-3-hydroxybutanoyl)-2-methylpiperidin-4-yl)-5-cyclopropylisoxazole-3-carboxamide], the IC50 was determined as 6.78 µM.

With `C[C@H]1CC(NC(=O)c2cc(C3CC3)on2)CCN1C(=O)CC(O)CN` (stereo partly drawn) [compound 173, N-((2S)-1-(4-amino-3-hydroxybutanoyl)-2-methylpiperidin-4-yl)-5-cyclopropylisoxazole-3-carboxamide], the IC50 stood at 5.26 µM.

In the case of `C[C@@H]1CC(NC(=O)c2cc(C3CC3)on2)CCN1C(=O)[C@H]1CCC[C@H](N)C1` (stereo partly drawn) [compound 174, N-((2R)-1-((1S,3S)-3-aminocyclohexane-1-carbonyl)-2-methylpiperidin-4-yl)-5-cyclopropylisoxazole-3-carboxamide], the half-maximal inhibitory concentration (IC50) came to 0.728 µM.

On to `C[C@H]1CC(NC(=O)c2cc(C3CC3)on2)CCN1C(=O)CCC1CCNC1` (stereo partly drawn) [compound 176, 5-cyclopropyl-N-((2S)-2-methyl-1-(3-(pyrrolidin-3-yl)propanoyl)piperidin-4-yl)isoxazole-3-carboxamide], for which the IC50 was 0.624 µM.

As for `C[C@H]1CC(NC(=O)c2cc(C3CC3)on2)CCN1C(=O)C1CNCC(O)C1` (stereo partly drawn) [compound 177, 5-cyclopropyl-N-((2S)-1-(5-hydroxypiperidine-3-carbonyl)-2-methylpiperidin-4-yl)isoxazole-3-carboxamide], the IC50 was over 10 µM.

`C[C@H]1CC(NC(=O)c2cc(C3CC3)on2)CCN1C(=O)C1CC2(CCNC2)C1` (stereo partly drawn) [compound 178, 5-cyclopropyl-N-((2S)-2-methyl-1-(6-azaspiro[3.4]octane-2-carbonyl)piperidin-4-yl)isoxazole-3-carboxamide]: the concentration for half-maximal inhibition (IC50) is 2.02 µM.

Turning to `C[C@H]1CC(NC(=O)c2cc(C3CC3)on2)CCN1C(=O)C1CC12CCNCC2` (stereo partly drawn) [compound 179, 5-cyclopropyl-N-((2S)-2-methyl-1-(6-azaspiro[2.5]octane-1-carbonyl)piperidin-4-yl)isoxazole-3-carboxamide], the IC50 was 1.42 µM.

Regarding `C[C@@H]1CC(NC(=O)c2cc(C3CC3)on2)CCN1C(=O)CCC1CCNC1` (stereo partly drawn) [compound 180, 5-cyclopropyl-N-((2R)-2-methyl-1-(3-(pyrrolidin-3-yl)propanoyl)piperidin-4-yl)isoxazole-3-carboxamide], the IC50 was 0.953 µM.

On to `N[C@H]1CC[C@@H](C(=O)N2CCC(NC(=O)c3cc(C4CC4)on3)CC2)C1` [compound 182, N-(1-((1R,3S)-3-aminocyclopentane-1-carbonyl)piperidin-4-yl)-5-cyclopropylisoxazole-3-carboxamide], for which the IC50 was determined as 4.79 µM.

Consider `C[C@@H]1C[C@@H](NC(=O)c2cc(C3CC3)on2)CCN1C(=O)CCCCN` [compound 184, N-((2R,4S)-1-(5-aminopentanoyl)-2-methylpiperidin-4-yl)-5-cyclopropylisoxazole-3-carboxamide], for which the IC50 amounted to 2.67 µM.

As for `C[C@@H]1C[C@@H](NC(=O)c2cc(C3CC3)on2)CCN1S(=O)(=O)Cc1ccccc1` [compound 185, N-((2R,4S)-1-(benzylsulfonyl)-2-methylpiperidin-4-yl)-5-cyclopropylisoxazole-3-carboxamide], the IC50 was 4.31 µM.

In the case of `C[C@@H]1C[C@@H](NC(=O)c2cc(C3CC3)on2)CCN1S(=O)(=O)CC(F)(F)F` [compound 186, 5-cyclopropyl-N-((2R,4S)-2-methyl-1-((2,2,2-trifluoroethyl)sulfonyl)piperidin-4-yl)isoxazole-3-carboxamide], the IC50 is over 10 µM.

Take `C[C@H]1C[C@H](NC(=O)c2cc(C3CC3)on2)CCN1S(=O)(=O)CCCN` [compound 188, N-((2S,4R)-1-((3-aminopropyl)sulfonyl)-2-methylpiperidin-4-yl)-5-cyclopropylisoxazole-3-carboxamide]: the half-maximal inhibitory concentration (IC50) came out at 0.0723 µM.

As to `CC[C@@H]1CN(C(=O)[C@H]2CC[C@H](N)CC2)CC[C@@H]1NC(=O)c1cc(C2CC2)on1` [compound 190, N-((3R,4S)-1-((1r,4R)-4-aminocyclohexane-1-carbonyl)-3-ethylpiperidin-4-yl)-5-cyclopropylisoxazole-3-carboxamide], the half-inhibitory concentration (IC50) amounted to 0.352 µM.

For the molecule `N[C@H]1CC[C@H](C(=O)N2C3CCC2CC(NC(=O)c2cc(C4CC4)on2)C3)CC1` (stereo partly shown) [compound 191, N-(8-((1r,4r)-4-aminocyclohexane-1-carbonyl)-8-azabicyclo[3.2.1]octan-3-yl)-5-cyclopropylisoxazole-3-carboxamide], the IC50 was over 10 µM.

With `CCOC(=O)[C@@H]1CC(NC(=O)c2cc(C3CC3)on2)CCN1C(=O)[C@H]1CC[C@H](N)CC1` (stereo partly drawn) [compound 192, ethyl (2S)-1-((1r,4S)-4-aminocyclohexane-1-carbonyl)-4-(5-cyclopropylisoxazole-3-carboxamido)piperidine-2-carboxylate], the IC50 was 7.08 µM.

On to `C[C@@H]1CN(C(=O)CCCN)CC[C@@H]1NC(=O)c1cc(C2CC2)on1` [compound 193, N-((3R,4S)-1-(4-aminobutanoyl)-3-methylpiperidin-4-yl)-5-cyclopropylisoxazole-3-carboxamide], for which the IC50 was found to be 2.87 µM.

As to `C[C@H]1CN(C(=O)CCCN)CC[C@H]1NC(=O)c1cc(C2CC2)on1` [compound 194, N-((3S,4R)-1-(4-aminobutanoyl)-3-methylpiperidin-4-yl)-5-cyclopropylisoxazole-3-carboxamide], the 50% inhibitory concentration (IC50) is 1.37 µM.

Regarding `C[C@@H]1CN(C(=O)CCCN)CC[C@H]1NC(=O)c1cc(C2CC2)on1` [compound 195, N-((3R,4R)-1-(4-aminobutanoyl)-3-methylpiperidin-4-yl)-5-cyclopropylisoxazole-3-carboxamide], the IC50 is over 10 µM.

As for `C[C@H]1CN(C(=O)CCCN)CC[C@@H]1NC(=O)c1cc(C2CC2)on1` [compound 196, N-((3S,4S)-1-(4-aminobutanoyl)-3-methylpiperidin-4-yl)-5-cyclopropylisoxazole-3-carboxamide], the IC50 is 6.91 µM.

One may read the IC50 as the concentration that gives 50% inhibition.
